Experiment [1] deals with histone H3 acetylation in human bladder carcinoma T24 cells. The experiment in a line: Cell-based ELISA for H3 acetylation. On the procedure:
(§1) Bladder carcinoma T24 cells were seeded in black plates with clear bottoms (Costar #3603) at 1×10^4 cells per well in a volume of 100 μl per well, and were allowed to settle for one day at 37° C. in a CO2 incubator. The cells were treated for 16 h with various concentrations of HDAC inhibitors. 3 h before the end of the treatment, Alamar Blue (BioSource) was added to monitor cell viability according to the manufacturer's instructions. At the end of the treatment time, Alamar Blue OD (at 570 nm and 600 nm) was recorded, then the cells were carefully washed in PBS, fixed in pre-chilled methanol for 10 min at −20° C., washed again twice in PBS, and blocked in PBS containing 0.1% Triton X-100 and 1% BSA for a minimum of 30 min. For H3 acetylation, rabbit-anti-acetyl-H3 (Upstate #06-599) was used as primary antibody at a dilution of 1:1000 for 45 min; the secondary antibody was HRP-coupled goat-anti-rabbit (Sigma #A-0545), used at 1:8000 for 45 min. For tubulin acetylation, the primary antibody was mouse anti-acetyl-tubulin (Sigma #T-6793, 1:2000, 45 min) while the secondary was HRP-coupled goat-anti-mouse antibody (Sigma #A-2304, 1:8000, 45 min). All antibodies were diluted in blocking buffer, and the cells were washed in blocking buffer following each antibody incubation. […] The fluorescent signal for acetylation was normalized by dividing with the viability data obtained from Alamar Blue. EC50 was defined as the concentration of compound which gave a signal half-way between the basal (untreated) level and the maximum level generated by high doses of the HDAC pan-inhibitor NVP-LAQ-824.

Experiment [2] deals with tubulin acetylation in human bladder carcinoma T24 cells. Nature of the experiment: Cell-based ELISA for tubulin acetylation. As for the experimental part: as §1
Experiment [3] deals with bFGF transcription in human prostate cancer Du145 cells. Nature of the experiment: bFGF transcription in Du145 cells in vitro. Format: cell-based. The following applies: 3 μM, 24 hour treatment. On the procedure: Human prostate cancer Du145 cells were exposed to Cpd A or SAHA (3 microM) for 24 hours. Total RNA was collected by Isogen (Nippongene, Tokyo, Japan) and reverse-transcribed to cDNA by ExScript® RT reagent Kit (TAKARA, Kyoto, Japan). The expression level of bFGF mRNA was detected by ABI7700 analyzer using probe/primer pre-mixture reagent (ABI, Cat# Hs00266645_m1, CA, USA) and TaqMan® Universal PCR Master Mix (ABI, Cat# 430-4437) as described in the ABI's protocol. The expression level of VEGF mRNA was detected in a similar manner using the appropriate probe/primer reagents.

The test system of experiment [4] is anti-angiogenesis genes in colon adenocarcinoma HCT15 cells. The experiment in a line: Microarray analysis of anti-angiogenesis genes in HCT15 cells. Format: cell-based, human. To be noted: 1 μM, 24 h. As for the experimental part:
RNA labeling, microarray hybridization, scanning and analysis were performed by Genotypics (India). RNAs were labeled with either Cy3 or Cy5 using Agilent's optimized labeling kits and hybridized to Human whole genome 44K Oligo Microarray. Array chips were ordered from Agilent (Palo Alto, Calif.). Slides were scanned using a DNA microarry scanner from Agilent and the raw data was extracted using Agilent's image analysis tool (feature extraction software). Normalization and Statistical analysis were performed using GeneSpring software. Biological analysis was performed using Biointerpreter software.
FIG. 4a indicates a list of selected genes with anti-angiogenesis function. The numbers indicate the fold induction in treated samples compared to non-treated samples (average of three biological replicates ±standard deviation).

The test system of experiment [5] is MT3 transcription in implanted H460 tumors. The experiment in a line: MT3 transcription in implanted H460 tumors in vivo. Further details: species or system mouse. To be noted: H460 tumors in mice, single dose 100 mg/kg po. On the procedure: 6 hours or 24 hours post drug administration, mice were sacrificed and tumor excised and put in RNAlater (Ambion, Austin, Tex.) and stored at −70 C until RNAs were extracted using QiaShredder and RNeasy mini kit (Qiagen). For real time RT-PCR to determine MT3 transcription level, 1 μg RNA was converted into cDNA using Expand RT enzyme (Roche) and Oligo(dT) primers (Invitrogen) in a 20 μl reaction volume. For quantitative real-time PCR, the primers used for MT3 were 5′CCCTGCGGAGTGTGAGAAGT 3′ and 5′TGCTTCTGCCTCAGCTGCCT 3′ and those for β-actin were 5′CTCTTCCAGCCTTCCTTCCT 3′ and 5′AGCACTGTGTTGGCGTACAG 3′. Reactions with either pair of primers included an annealing temperature of 63.4° C. All real-time PCR reactions were performed on the MasterCycler ep Realplex (Eppendorf) using FastStart SYBRGreen Master (Roche).

Another experiment concerns H460 (NSCLC) xenografts. The experiment in a line: H460 (NSCLC) xenograft, oral HDAC inhibitor with taxol. Format: in vivo, mouse. As for the experimental part:
Antitumor studies were done using human H460 non-small cell lung tumor, Du145 prostate tumor, TSU-Pr1 prostate tumor, and AZ521 gastric tumor xenograft model in male BALBc/A nude mice (from Japan Crea Inc., Japan). Male nude mice were used at age 8-10 weeks. Human carcinoma cells were injected subcutaneously in the animal flank and allowed to form solid tumors. Tumor fragments (about 2 mm^3 fragments) were then removed and implanted subcutaneously through a small surgical incision to the right flank of other animals. […] Tumor volumes and gross body weight of animals were monitored twice weekly for up to 2 weeks for AZ-521 and TSU-Pr1, or 4 weeks for H460 and Du145 xenografts. Each experimental group contained 6 animals.

The test system of experiment [6] is TSP-1 expression in cancer cells (Du145, H460, A549). The experiment in a line: TSP-1 transcription in cancer cells in vitro. Format: cell-based, human. To be noted: over time, 3 microM, 24 hours. On the procedure: Cells were exposed by Cpd A or SAHA (3 microM) for 24 hours. Total RNA was collected by Isogen (Nippongene, Tokyo, Japan) and reverse-transcribed to cDNA by ExScript® RT reagent Kit (TAKARA, Kyoto, Japan). The expression level of TSP-1 mRNA was detected by ABI7700 analyzer using a probe/primer pre-mixture reagent (ABI, Cat#, CA, USA) and TaqMan® Universal PCR Master Mix (ABI, Cat# 430-4437) as described in the ABI's protocol.

For experiment [7], the system named is MT3 transcription in human colon cancer HCT15 cells. The experiment in a line: MT3 transcription in HCT15 cells, microarray analysis. Format: cell-based. The following applies: 1 uM. The text has this:
Total RNAs were extracted and RNA quality analysis was done using Agilent 2100 bioanalyzer and Agilent's RNA Labchip kits. RNAs were labeled with either Cy3 or Cy5 using Agilent's optimized labeling kits and hybridized to Human whole genome 44K Oligo Microarray (Agilent, Palo Alto, Calif.). Slides were scanned using DNA microarry scanner from Agilent and the raw data was extracted using Agilent's image analysis tool (feature extraction software). Normalization and statistical analysis were performed using GeneSpring software. Biological analysis was performed using Biointerpreter software.

“Also recorded” adds a separate entry of the source.

Consider `Nc1ccccc1NC(=O)c1ccc(CNc2nccc(-c3cccnc3)n2)cc1` [Compound A], for which the “histone H3 acetylation” value in experiment [1] is reported as “dose-dependent induction”. Moreover, the tubulin acetylation entry in experiment [2] is given as “but not tubulin acetylation”. Further, in experiment [3], the bFGF transcription result is listed as “more dramatic than by SAHA; also recorded: suppression”. Besides, the “transcription of anti-angiogenesis genes” value in experiment [4] is “affects several genes of the angiogenesis pathway; also recorded: induction”. In experiment [5], the “MT3 transcription in tumors” value is on record as “induction”. Further, the “tumor response to combination therapy with taxol” value with H460 (NSCLC) xenografts (Compound A 100 mg/kg or SAHA 120 mg/kg with taxol 60 mg/kg) is reported as “tumor regression”. For the same molecule, the “anti-tumor effect of taxane (tumor volume)” value with H460 (NSCLC) xenografts (Compound A 100 mg/kg p.o. 3 times per week with taxol 60 mg/kg i.v. day 1) is “potentiation”. In experiment [6], the TSP-1 expression result is given as “induction”.

Turning to `Nc1ccc(-c2ccccc2)cc1NC(=O)c1ccc(N2CC[C@H](N)C2)cc1` [Compound D], the MT3 transcription result in experiment [7] is given as “induction”.

The values are drawn from patent publication US20090124631A1, “Combination Therapy” (priority 2007, published 2009).
